One compound from patent US7618802B2 (priority 2003, dated 2009) can be followed below.

The test system of assay [1] is icSARS-CoV. Type of assay: cell-based, SARS-CoV. The conditions noted are these: single dose of 500 μg/ml at 1 hr pi.
For assay [2], the system named is wild type SARS-CoV. Format: cell-based. The conditions noted are these: single dose of 500 μg/ml at 1 hr pi.

With `CCOC(=O)[C@H]1O[C@@H]1C(=O)N[C@@H](CC(C)C)C(=O)NCCC(C)C` (relative stereo) [E64-d, {2S, 3S}-trans-epoxysuccinyl-L-leucylamido-3-methylbutane ethyl ester], the “viral CPE and viral antigen expression” value in assay [1] and in assay [2] was “almost complete elimination” throughout. Besides, the “reduction in virus yield” value in assay [1] (24 and 48 hrs postinfection) was 3-4 log; in assay [2] (24 and 48 hrs postinfection) it was 3-4 log.
